According to the OPERA property sets (Mansouri et al. 2018):

Conditions: for log10 BCF / log10 biotransformation half-life (days): fish

SMILES	melting point [°C]	boiling point [°C]	further results
O=C(O)c1nc(Cl)ccc1Cl	151		log10 Koc (L/kg): 1.56; log10 vapour pressure (mmHg): -4.92
CCCC(O)/C=C/C=C/C=C/C#CC#CCCCO (centres undefined)	54		
SC1=NCCCN1	211		
C=CCC#N	-87	119	log10 vapour pressure (mmHg): 1.27
C[SiH](Cl)Cl	-93	41	log10 vapour pressure (mmHg): 2.63
C1=CC=CC=CC=C1	-4.7	140	log10 vapour pressure (mmHg): 0.892
CCCCc1c(C)nc(N(C)C)nc1O	102		log10 Koc (L/kg): 1.95; log10 vapour pressure (mmHg): -4.96
OCCCCCO	-18	239	log10 vapour pressure (mmHg): -2.41; ready biodegradability: readily biodegradable
CC(Oc1ccccc1Cl)C(=O)O (centres undefined)	114		
CCCCCCCCOC=O	-39.1	199	
FC(F)(F)CCl	-106	6.1	
CC#Cc1ccccc1		183	
CC(=O)CCc1ccccc1	-13	234	ready biodegradability: not readily biodegradable
CCCCOC(=O)C(C)CC (centres undefined)		179	
CCCCN(CCO)CCO		275	
CCCC(=O)c1cc(O)c(O)cc1O	154		
O=[N+]([O-])C(Br)(CO)CO	132		ready biodegradability: not readily biodegradable
CC1(C)CC=CC1		88	
Cc1ccccc1NCCO		286	
O=C(O)C1C(C(=O)O)C2(Cl)C(Cl)=C(Cl)C1(Cl)C2(Cl)Cl (centres undefined)	209		log10 Koc (L/kg): 2.79; ready biodegradability: not readily biodegradable; log10 BCF: 0.32
CC(C)=CCC1=C(O)C(=O)c2ccccc2C1=O	140		
CC(=O)CCC(=O)OC(C)C		209	
COC(=O)c1ccccc1C(=O)O	83		
CCOC(CC)(OCC)OCC		171	

SMILES	melting point [°C]	boiling point [°C]	further results
CCOP(=S)(OCC)SCn1c(=O)oc2cc(Cl)ccc21	47.8		log10 Koc (L/kg): 2.63
O=C(OC[C@H]1O[C@@H](Oc2ccccc2CO)[C@H](O)[C@@H](O)[C@@H]1O)c1ccccc1	180		
O=C(N/N=C/C=C/c1ccc([N+](=O)[O-])o1)c1ccc([N+](=O)[O-])s1	236		
ClC1CCCC1		114	
Cc1cccc(C(=O)Cl)c1	-23	220	
O=S1OCCO1	-11	173	
COC1=C(OC)C(=O)C(C)=CC1=O	59.5		
CC1=CC[C@@H]2C[C@@H](C[C@]3(CC[C@H](C)[C@@H](C)O3)O2)OC(=O)[C@@H]2C=C(C)[C@@H](O)[C@H]3OCC(=CC=C[C@H](C)C1)[C@]32O	214		
O=C(O)CN(CC(=O)O)CC(=O)O			ready biodegradability: not readily biodegradable
C=COCCOCCOC=C		198	log10 vapour pressure (mmHg): -1.64
Clc1ccccc1-c1cc(Cl)c(Cl)c(Cl)c1Cl			log10 vapour pressure (mmHg): -4.16
CC12CCC(CC1)C(C)(C)O2	1.5	176	log10 vapour pressure (mmHg): 0.279
COC(=O)c1ccccc1I		280	
CCCCC(Cl)CC (centres undefined)		144	
C=C(C)c1ccc(C(C)(C)N=C=O)cc1			log10 vapour pressure (mmHg): -2.33
CN1CC[C@]23c4c5ccc(OCCN6CCOCC6)c4O[C@H]2[C@@H](O)C=C[C@H]3[C@H]1C5	91		
Cc1ccc(N(SC(F)(Cl)Cl)S(=O)(=O)N(C)C)cc1	96		log10 vapour pressure (mmHg): -5.82
CCNc1cccc(C)c1		221	
Cc1ccc(C(=O)O)c([N+](=O)[O-])c1O	186		
CN(CC(=O)O)N=O	66.5		
C=CCOCC		67.6	log10 vapour pressure (mmHg): 2.18
CCOP(=O)(OCC)Oc1ccc([N+](=O)[O-])cc1	300		log10 vapour pressure (mmHg): -5.96
CC(CCO)CC(C)(C)C (centres undefined)		194	log10 vapour pressure (mmHg): -0.523; ready biodegradability: not readily biodegradable
CC(=O)c1ccc(C#N)cc1	57.5		

SMILES	melting point [°C]	boiling point [°C]	further results
COc1cc(CNC(=O)CCCC/C=C/C(C)C)ccc1O	65		
CC1CCCNC1=O (centres undefined)	55.3	250	
ClCc1cccc2ccccc12	32	292	
C[C@@H](CN)c1ccccc1		210	
CC1(C)[C@@H](OC(=O)CCC(=O)O)CC[C@]2(C)[C@H]3C(=O)C=C4[C@@H]5C[C@@](C)(C(=O)O)CC[C@]5(C)CC[C@@]4(C)[C@]3(C)CC[C@@H]12	292		
N#Cc1c(F)c(F)c(F)c(F)c1F	2.4	162	
CC(C)Cc1ccc(N)cc1		238	
CC(C)(O)CCC(C)(C)O	92	214	
Clc1ccc(Oc2c(Cl)cc(Cl)c(Cl)c2Cl)c(Cl)c1			log10 biotransformation half-life (days): 2.76
Cc1ccc(Oc2ccc([N+](=O)[O-])cc2)cc1	69		
C=C(C)C(=O)OCCCCCCCCCCCC	-7		
CCC=CCC(=O)O	12	208	
CC1COCc2cc3c(cc21)C(C)(C)C(C)C3(C)C (centres undefined)	-5	325	log10 vapour pressure (mmHg): -3.26
CCc1ccccc1C		165	log10 biodegradation half-life (days): 0.602; log10 vapour pressure (mmHg): 0.417
CCNc1nc(Cl)nc(NC(C)(C)C)n1	178		log10 Koc (L/kg): 2.32; log10 vapour pressure (mmHg): -5.95
CC=Cc1ccc(O)c(OC)c1	11.8	266	log10 vapour pressure (mmHg): -1.92
NS(=O)(=O)c1cc2c(cc1Cl)NC(CC1CCCC1)NS2(=O)=O (centres undefined)	238		
CC1=CC(=O)C=CC1=O	69		
CCN(CC)c1ccc(C(=O)c2ccccc2C(=O)O)c(O)c1			ready biodegradability: not readily biodegradable
N#CCc1ccc2ccccc2c1	83	303	
COC(=O)c1cc(Cl)ccc1O	50		
CC(C)OC(=O)Nc1cccc(Cl)c1	41		log10 Koc (L/kg): 2.6; log10 vapour pressure (mmHg): -3.74; ready biodegradability: readily biodegradable
Brc1ccc2c(c1)Oc1cc(Br)ccc1O2	145		log10 vapour pressure (mmHg): -5.89
CCc1ccccc1O	18	204	log10 vapour pressure (mmHg): -0.815

SMILES	melting point [°C]	boiling point [°C]	further results
O=C(O)c1ccccc1C(=O)c1ccccc1	127	261	
CCOC(=O)Oc1c(OC)cc(C(=O)O[C@@H]2C[C@@H]3CN4CCc5c([nH]c6cc(OC)ccc56)[C@H]4C[C@@H]3[C@H](C(=O)OC)[C@H]2OC)cc1OC	177		
CCCN(CCC)c1c([N+](=O)[O-])cc(C(F)(F)F)cc1[N+](=O)[O-]	49		log10 Henry constant (atm·m³/mol): -3.99; log10 Koc (L/kg): 4.2; log10 vapour pressure (mmHg): -4.34; ready biodegradability: not readily biodegradable; log10 BCF: 3.36; log10 biotransformation half-life (days): 0.62
OC[C@H]1O[C@@H](Oc2ccc(O)cc2)[C@H](O)[C@@H](O)[C@@H]1O	200		
C=C(C)CCl		71.5	log10 vapour pressure (mmHg): 2.01; ready biodegradability: readily biodegradable
CCCCCCCCCCCCCCCCCC	28.2	316	log10 biodegradation half-life (days): 1.32; log10 vapour pressure (mmHg): -3.47; ready biodegradability: readily biodegradable
C=C(CC(=O)OC)C(=O)OC	38	208	
O=C1Nc2ccccc2CCc2ccccc21			ready biodegradability: readily biodegradable
O=C1CCCCCCCCCCCN1	152		ready biodegradability: not readily biodegradable; log10 BCF: 0.41
COC(=O)C1(S(=O)(=O)c2ccc(Br)cc2)CC1	124		
c1c2c(cc3c1CCCC3)CCCC2	78	294	
N#Cc1cccc(F)c1	-16	182	
C#CC(OCC)OCC		139	
C=CCC1(CC(C)C)C(=O)NC(=O)NC1=O	138		
O=C(c1ccccc1O)N1CCOCC1	175		
Clc1ccc(-c2cc(Cl)cc(Cl)c2Cl)cc1			log10 biotransformation half-life (days): 2.43
C[Si](C)(F)c1ccccc1			log10 vapour pressure (mmHg): 0.463
O=C(OCC(=O)N1CCCCC1)c1ccccc1	88		
CCCCCC(C=O)=Cc1ccccc1	80		ready biodegradability: readily biodegradable
O=C(O)[C@H](O)[C@@H](O)C(=O)O (racemic)	174		
C=CCCCCCCCC	-66.3	170	log10 vapour pressure (mmHg): 0.223; log10 biotransformation half-life (days): 0.65
Clc1cc(Cl)c2ccccc2n1	67.5	281	
Nc1cccc2c1C(=O)c1cccc(N)c1C2=O	319		
COS(=O)(=O)[O-].C[n+]1c2ccccc2nc2ccccc21	157		

SMILES	melting point [°C]	boiling point [°C]	further results
CC(O)c1ccccc1 (centres undefined)	15	205	log10 Koc (L/kg): 1.5; ready biodegradability: readily biodegradable
CCCC(=O)O	-5.7		log10 Henry constant (atm·m³/mol): -6.27; log10 vapour pressure (mmHg): 0.217; ready biodegradability: readily biodegradable
C=CCN(CC=C)C(=O)C(Cl)Cl	5.5		log10 Koc (L/kg): 1.6; log10 vapour pressure (mmHg): -2.22
CCCCCCC#CC(=O)O	-8		
Cc1nn(-c2cc(NS(C)(=O)=O)c(Cl)cc2Cl)c(=O)n1C(F)F	122		log10 vapour pressure (mmHg): -9.01
COc1cc2ccc(=O)oc2cc1O	204		
C1CCCCCCC1	14.8	149	log10 vapour pressure (mmHg): 0.741
CC(C)C(C)c1ccccc1 (centres undefined)		187	
CCC(C)CCC(C)C (centres undefined)		136	log10 biodegradation half-life (days): 0.778
C=CC	-185	-48	log10 Henry constant (atm·m³/mol): -0.708; log10 vapour pressure (mmHg): 3.94
CC=CC(C)=O		122	
O=C(Nc1ccccc1)OCC1(COC(=O)Nc2ccccc2)CCCC1	152		
CCCCCCCCCCCC(=O)N(CCO)CCO			ready biodegradability: readily biodegradable
Cc1cc(C)on1		143	
O=C(O)CCl	63	189	log10 Henry constant (atm·m³/mol): -8.03; log10 vapour pressure (mmHg): -1.19; ready biodegradability: readily biodegradable
c1ccc2c3c([nH]c2c1)CCCC3	120	328	
O=C(Cl)c1ccccc1O	19		
COc1ccc(C)cc1C		192	
CCC(=O)OCCOC(=O)CC		211	
Cc1ccc([N+](=O)[O-])cc1O			ready biodegradability: not readily biodegradable; log10 BCF: 0.85; log10 biotransformation half-life (days): -1.24
CCCCCCCCCC(=O)CCCCCCCCC	65.5		
ClC1(Cl)C2(Cl)C3(Cl)C4(Cl)C(Cl)(Cl)C5(Cl)C3(Cl)C1(Cl)C5(Cl)C24Cl (centres undefined)			log10 Henry constant (atm·m³/mol): -3.09; log10 Koc (L/kg): 6; log10 vapour pressure (mmHg): -6.1; log10 BCF: 4.31; log10 biotransformation half-life (days): 1.8
